In the test the target is T1, AGR3 (Homo sapiens, UniProt Q8TD06).
T1 sequence (Q8TD06 22-166): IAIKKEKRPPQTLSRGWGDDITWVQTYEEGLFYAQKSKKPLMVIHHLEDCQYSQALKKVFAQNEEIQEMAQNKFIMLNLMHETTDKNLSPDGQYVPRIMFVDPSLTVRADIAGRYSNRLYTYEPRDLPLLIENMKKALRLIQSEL
Briefly: biotin probe labelling, non-reducing SDS-PAGE, streptavidin-AP blot. Type of test: binding. The following applies: covalent; labelled compound; 30 uM probe, pH 7.4, 37 C.

Molecules are shown by their SMILES.

The record followed here is paper doi:10.1101/2021.01.13.426390v3 (biorxiv, 2021).

In the case of `O=C(CCCC[C@@H]1SC[C@@H]2NC(=O)N[C@@H]21)NCC(=O)N1C[C@@H]2CS(=O)(=O)SC[C@H]2C1` (racemic) [Biotin-GlyPyrDTDO], the “biotin probe labelling, non-reducing SDS-PAGE, streptavidin-AP blot” value is recorded as “it was also labeled by Biotin-GlyPyrDTDO”.
